Patent US6498158B1, “Il-5 inhibiting 6-azauracil derivatives” (Janssen Pharmaceutica N.V., priority 1998, dated 2002)

Key:
IL-5 production = assay: In vitro inhibition of IL-5 production in human blood; type: cell-based; conditions: test dose of 1×10^−6 M, phytohemagglutinin-stimulated human whole blood, ELISA; for inhibition at 1 µM: Homo sapiens, 48 h, read-out: % inh. (percentage inhibition of IL-5 production); for % inh. (percentage inhibition of IL-5 production): 48 hours
Procedure: In Vitro Inhibition of IL-5 Production in Human Blood
Human Whole Blood Stimulation
Peripheral blood from healthy male donors was drawn into heparinized syringes (12.5 U heparin/ml). Blood samples were three-fold diluted in RMPI 1640 medium (Life Technologies, Belgium) supplemented with 2 mM L-glutamine, 100 U/ml penicillin and […] streptomycin, and […] fractions were distributed in 24-well multidisc plates. Blood samples were preincubated (60 minutes at 37° C.) in a humidified 6% CO2-atmosphere with 100 ml of drug solvent (final concentration 0.02% dimethylsulfoxide in RPMI 1640) or with 100 ml of an appropriate dose of test compound before being stimulated by the addition of […] of phytohemagglutinin HA17 (Murex, UK) at a final concentration of […]. After 48 hours, cell-free supernatant fluids were collected by centrifugation and stored at −70° C. until tested for the presence of IL-5.
IL-5 measurements were conducted as described in Van Wauwe et al. (1996, Inflamm Res, 45, 357-363) on page 358 using ELISA.
Table 3 lists the percentage inhibition of IL-5 production (column “% inh”) at a test dose of 1×10^−6 M for the compounds of the present invention.

Row | Structure (SMILES) | melting point [°C] | inhibition at 1 µM (IL-5 production) [%] | % inh. (percentage inhibition of IL-5 production) (IL-5 production) [%]
1 | N#CC1(c2c(Cl)cc(-n3ncc(=O)[nH]c3=O)cc2Cl)CCc2ccccc21 (centres unmarked) [Compound 1] | – | 70.5 | –
2 | Cc1sc(C2(c3c(Cl)cc(-n4ncc(=O)[nH]c4=O)cc3Cl)CCc3ccccc32)nc1-c1ccccc1 (centres unmarked) [Compound 6] | – | – | 91

Now from value to molecule, other results behind:

Row | melting point [°C] | Structure (SMILES) | inhibition at 1 µM (IL-5 production) [%] | % inh. (percentage inhibition of IL-5 production) (IL-5 production) [%]
3 | 88 | CCOC(=O)C1(c2c(Cl)cc(-n3ncc(=O)[nH]c3=O)cc2Cl)CCc2ccccc21 (centres unmarked) [Compound 2] | 63 | –
4 | 237 | Cc1sc(C2(c3c(Cl)cc(-n4ncc(=O)[nH]c4=O)cc3Cl)CCc3ccccc32)nc1-c1ccccc1 (centres unmarked) [Compound 4] | 89.3 | –
5 | 122 | Cc1sc(C2(c3c(Cl)cc(-n4ncc(=O)[nH]c4=O)cc3Cl)CCc3ccccc32)nc1-c1ccccc1 (centres unmarked) [Compound 5] | – | 88
